Laboratory results: ChEMBL document CHEMBL1201862, “PubChem BioAssay data set” (2004)
Counter-ions that a name gives are not always drawn.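 How tested: cells in 96-well plates exposed to compound for 48 hours at five concentrations. The concentration for 50% growth inhibition is given as GI50.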 Active and inactive are the calls of the source. Cut-off read from the data, not from the text of the source: active = GI50 up to about 1.1 µM and inactive = higher.

How the values were obtained:
Experiment in all cases: growth of human tumour cells (NCI), 48 h
HCC 2998 = system: HCC 2998
HOP-92 = system: HOP-92
DMS-114 = system: DMS-114
SF-539 = system: SF-539
CAKI-1 = system: CAKI-1
OVCAR-4 = system: OVCAR-4
SNB-19 = system: SNB-19
A498 = system: A498
UACC-257 = system: UACC-257
ACHN = system: ACHN
SW-620 = system: SW-620
NCI-H460 = system: NCI-H460
DMS-273 = system: DMS-273
RXF 393 = system: RXF 393
HOP-62 = system: HOP-62
HOP-18 = system: HOP-18
TK-10 = system: TK-10
OVCAR-3 = system: OVCAR-3
M14 = system: M14
HL-60 = system: HL-60
MOLT-4 = system: MOLT-4
SF-295 = system: SF-295
HCT-116 = system: HCT-116
OVCAR-5 = system: OVCAR-5
SNB-75 = system: SNB-75
IGROV-1 = system: IGROV-1
HCT-15 = system: HCT-15
SK-MEL-28 = system: SK-MEL-28
Malme-3M = system: Malme-3M
RPMI-8226 = system: RPMI-8226
U-251 = system: U-251
LOX IMVI = system: LOX IMVI
UO-31 = system: UO-31
K562 = system: K562
NCI-H23 = system: NCI-H23
KM12 = system: KM12
COLO 205 = system: COLO 205
SF-268 = system: SF-268
SN12C = system: SN12C
EKVX = system: EKVX
KM-20L2 = system: KM-20L2
786-0 = system: 786-0
SK-OV-3 = system: SK-OV-3
HT-29 = system: HT-29
SK-MEL-2 = system: SK-MEL-2
DLD-1 = system: DLD-1
LXFL 529 = system: LXFL 529
XF498 = system: XF498
OVCAR-8 = system: OVCAR-8
SK-MEL-5 = system: SK-MEL-5
A549 = system: A549
CCRF-CEM = system: CCRF-CEM
SNB-78 = system: SNB-78
UACC-62 = system: UACC-62
NCI-H226 = system: NCI-H226
NCI-H522 = system: NCI-H522
SR = system: SR
M19-MEL = system: M19-MEL
MDA-MB-435 = system: MDA-MB-435

NC(=O)c1cc(C2OC(CO)C(O)C2O)nn1-c1ccc([N+](=O)[O-])cc1 (stereo not drawn)
GI50 (HCC 2998): > 100 µM (inactive) | GI50 (HOP-92): > 100 µM (inactive) | GI50 (DMS-114): > 100 µM (inactive) | GI50 (SF-539): > 100 µM (inactive) | GI50 (CAKI-1): > 100 µM (inactive) | GI50 (OVCAR-4): > 100 µM (inactive) | GI50 (SNB-19): > 100 µM (inactive) | GI50 (A498): > 100 µM (inactive) | GI50 (UACC-257): > 100 µM (inactive) | GI50 (ACHN): > 100 µM (inactive) | GI50 (SW-620): 43.3 µM (inactive) | GI50 (NCI-H460): > 100 µM (inactive) | GI50 (DMS-273): > 100 µM (inactive) | GI50 (RXF 393): > 100 µM (inactive) | GI50 (HOP-62): > 100 µM (inactive) | GI50 (HOP-18): > 100 µM (inactive) | GI50 (TK-10): > 100 µM (inactive) | GI50 (OVCAR-3): > 100 µM (inactive) | GI50 (M14): > 100 µM (inactive) | GI50 (HL-60): > 100 µM (inactive) | GI50 (MOLT-4): > 100 µM (inactive) | GI50 (SF-295): > 100 µM (inactive) | GI50 (HCT-116): > 100 µM (inactive) | GI50 (OVCAR-5): > 100 µM (inactive) | GI50 (SNB-75): > 100 µM (inactive) | GI50 (IGROV-1): > 100 µM (inactive) | GI50 (HCT-15): > 100 µM | GI50 (SK-MEL-28): > 100 µM (inactive) | GI50 (Malme-3M): > 100 µM (inactive) | GI50 (RPMI-8226): 88.9 µM (inactive) | GI50 (U-251): > 100 µM (inactive) | GI50 (LOX IMVI): > 100 µM (inactive) | GI50 (UO-31): > 100 µM (inactive) | GI50 (K562): > 100 µM (inactive) | GI50 (NCI-H23): > 100 µM (inactive) | GI50 (KM12): > 100 µM (inactive) | GI50 (COLO 205): > 100 µM (inactive) | GI50 (SF-268): > 100 µM (inactive) | GI50 (SN12C): > 100 µM (inactive) | GI50 (EKVX): > 100 µM (inactive) | GI50 (KM-20L2): > 100 µM (inactive) | GI50 (786-0): > 10 µM (inactive) | GI50 (SK-OV-3): > 100 µM (inactive) | GI50 (HT-29): > 100 µM (inactive) | GI50 (SK-MEL-2): > 100 µM (inactive) | GI50 (DLD-1): > 100 µM (inactive) | GI50 (LXFL 529): > 100 µM (inactive) | GI50 (XF498): > 100 µM (inactive) | GI50 (OVCAR-8): > 100 µM (inactive) | GI50 (SK-MEL-5): > 100 µM (inactive) | GI50 (A549): > 100 µM (inactive) | GI50 (CCRF-CEM): > 100 µM (inactive) | GI50 (SNB-78): 36.7 µM (inactive) | GI50 (UACC-62): > 100 µM (inactive) | GI50 (NCI-H226): > 100 µM (inactive)

Cc1cc2ncn(-c3nc4ccccc4nc3C(C#N)S(C)(=O)=O)c2cc1C (stereo not drawn)
GI50 (HCC 2998): > 100 µM (inactive) | GI50 (DMS-114): > 100 µM (inactive) | GI50 (SF-539): > 100 µM (inactive) | GI50 (CAKI-1): > 100 µM (inactive) | GI50 (OVCAR-4): > 100 µM (inactive) | GI50 (SNB-19): > 100 µM (inactive) | GI50 (A498): 19.7 µM (inactive) | GI50 (UACC-257): > 100 µM (inactive) | GI50 (NCI-H522): > 100 µM (inactive) | GI50 (ACHN): > 100 µM (inactive) | GI50 (SW-620): > 100 µM (inactive) | GI50 (NCI-H460): > 100 µM (inactive) | GI50 (DMS-273): > 100 µM (inactive) | GI50 (HOP-62): > 100 µM (inactive) | GI50 (TK-10): > 100 µM (inactive) | GI50 (OVCAR-3): > 100 µM (inactive) | GI50 (M14): > 100 µM (inactive) | GI50 (HL-60): > 100 µM (inactive) | GI50 (MOLT-4): > 100 µM (inactive) | GI50 (HCT-116): > 100 µM (inactive) | GI50 (OVCAR-5): > 100 µM (inactive) | GI50 (SR): > 100 µM (inactive) | GI50 (SNB-75): > 100 µM (inactive) | GI50 (IGROV-1): > 100 µM (inactive) | GI50 (HCT-15): > 100 µM | GI50 (SK-MEL-28): > 100 µM (inactive) | GI50 (Malme-3M): > 100 µM (inactive) | GI50 (RPMI-8226): > 100 µM (inactive) | GI50 (U-251): > 100 µM (inactive) | GI50 (LOX IMVI): > 100 µM (inactive) | GI50 (UO-31): > 100 µM (inactive) | GI50 (K562): > 100 µM (inactive) | GI50 (NCI-H23): > 100 µM (inactive) | GI50 (KM12): > 100 µM (inactive) | GI50 (COLO 205): > 100 µM (inactive) | GI50 (SF-268): > 100 µM (inactive) | GI50 (SN12C): > 100 µM (inactive) | GI50 (EKVX): > 100 µM (inactive) | GI50 (KM-20L2): > 100 µM (inactive) | GI50 (M19-MEL): > 100 µM (inactive) | GI50 (786-0): > 100 µM (inactive) | GI50 (SK-OV-3): 0.946 µM (active) | GI50 (SK-MEL-2): > 100 µM (inactive) | GI50 (DLD-1): > 100 µM (inactive) | GI50 (LXFL 529): > 100 µM (inactive) | GI50 (XF498): > 100 µM (inactive) | GI50 (OVCAR-8): > 100 µM (inactive) | GI50 (SK-MEL-5): > 100 µM (inactive) | GI50 (A549): > 100 µM (inactive) | GI50 (CCRF-CEM): > 100 µM (inactive) | GI50 (SNB-78): > 100 µM (inactive) | GI50 (UACC-62): > 100 µM (inactive) | GI50 (NCI-H226): 13.4 µM (inactive)

O=C1c2c(O)ccc(O)c2C(=O)c2c(NCCNCCO)ccc(NCCNCCO)c21 [MITOXANTRONE HYDROCHLORIDE]
GI50 (HOP-92): 0.0177 µM (active) | GI50 (CAKI-1): 0.00899 µM (active) | GI50 (A498): 0.0619 µM (active) | GI50 (UACC-257): 1.89 µM (inactive) | GI50 (MDA-MB-435): 0.471 µM (active) | GI50 (ACHN): 0.0115 µM (active) | GI50 (DMS-273): 0.0119 µM (active) | GI50 (HOP-18): 0.126 µM (active) | GI50 (TK-10): 0.423 µM (active) | GI50 (HL-60): 0.0103 µM (active) | GI50 (HCT-116): 0.0553 µM (active) | GI50 (SR): 0.00764 µM (active) | GI50 (U-251): 0.0091 µM (active) | GI50 (K562): 0.118 µM (active) | GI50 (KM-20L2): 0.384 µM (active) | GI50 (DLD-1): 0.491 µM (active) | GI50 (XF498): 0.0136 µM (active) | GI50 (CCRF-CEM): 0.00598 µM (active) | GI50 (SNB-78): 0.204 µM (active) | GI50 (NCI-H226): 0.0153 µM (active)
